# Laboratory results taken from patent US20110136916A1, “6-SHOGAOL FOR USING IN A METHOD FOR THE TREATMENT OF LEUKEMIA” (China Pharmaceutical University, priority 2009, published 2011).
# Entries after “also recorded” stand apart in the source; their conditions may differ. Where two headings read alike, the source gives them in different places.
# Tests used:
# [1] = system: human promyelocytic leukemia cell HL-60; assay: MTT anti-proliferation, HL-60; assay type: cell-based; settings: for growth inhibition (activities of cells vs control): HL-60, 1-20 μM; for IC50: HL-60, MTT, n = 3
# Description: (§1) Cells in logarithmic growth phase were collected and then inoculated in 1˜2×10^4 cells/well in a 96-well plate respectively according to the sizes of cells and whether they attached to the wall, the cells were centrifuged and the supernatant was removed after growing for 24 hours, and then drug administration was carried out according to the groups as below: the drug group and the drug free group were set up for tumor cells (the concentrations ranged from 1˜20 μM), 5 or 6 duplicates were set for each group and the cells were incubated for 24 or 72 hours. The supernatant was removed and 100 μl serum free culture solution containing 0.5 mg/ml MTT (tetrazolium) was added for further incubation for 4 hours, subsequently 100 μl DMSO (dimethyl sulfoxide) was added and the plate was kept on the micro-shaker for 10 minutes, and the OD value was determined on a micro-plate reader at the wavelength of 570 nm. Evaluations on the toxicity were carried out on normal human cell line LO-2 and each test was repeated for three times.
# [2] = system: human chronic granulocytic leukemia K562; assay: MTT anti-proliferation, K562; assay type: cell-based; settings: for IC50: K562, MTT, n = 3; for growth inhibition (activities of cells vs control): K562, 1-20 μM
# Description: as §1
# [3] = system: human leukemia Jurkat cells; assay: Annexin V/PI flow cytometry apoptosis of Jurkat cells; assay type: cell-based; settings: for Apoptotic rate: Jurkat
# Description: Jurkat cells in logarithmic growth phase of growth were collected (3−10×10^5) and inoculated to a 24-well plate in 3×10^5 cells/mL/well, then after incubation for 24 hours, different concentrations of 6-shogaol (0, 1, 2.5, 5, 10 and 15 μM) were added for treatment for 24 hours and also 6-shogaol at a concentration of 15 μM were added for treatment at different durations (0, 2, 4, 6, 12 and 24 h). After reacting with 6-shogaol under different conditions, the cells were collected into 1 mL centrifuge tubes and then centrifuged at 500 rpm (or 100×g) for 5 minutes, the supernatant was removed and the cells were rinsed with 0.01 M PBS at 500 rpm (or 100×g) for 5 minutes twice, and the flow cytometry analysis (Becton Dickinson FACScan Flow Cytometer) was carried out after adding binding solution and staining according to the directions for use of Annexin V/PI double staining kit (BD Company). The FACS data were analyzed by professional operators of the flow cytometer by using FLOWJO software (Tree Star, Calif.) software, the apoptotic rate was counted by the sum of early apoptosis and late apoptosis, and the results were shown in Table 2 and Table 3.
# [4] = system: peripheral blood lymphocytes (PBMC) of healthy volunteers; assay: Annexin V/PI apoptosis of PBMC from healthy volunteers; assay type: cell-based, human; settings: 24 hours
# Description: After application by the research group and approval by the Ethics Committee of the hospital, the leukemia patients (healthy volunteers) signed the informed consent and their fresh blood was collected and transferred into heparin anticoagulation tubes, then the same volume of serum free D-Hank buffer (preheated at 37° C.) was added to re-suspend the cells, and the suspension was added to the pre-laid human lymphocyte separating medium (preheated at 37° C.), and the volume ratio between the lymphocyte separating medium and the cell suspension should be no lower than 1:1, and the mixture was centrifuged at room temperature (20-30° C.) at 500×g by a horizontal centrifuge for 30 minutes. The upper layer plasma was removed and the white fog layer in the middle was carefully collected and transferred to 5 mL (or 1-2 times of the volume) PBS (or serum free buffer for cell culture), then it was centrifuged at 200×g or 1000 rpm for 10 minutes at room temperature (20-30° C.), and the supernatant was removed, and the obtained precipitation was the peripheral blood lymphocytes (PBMC). The cells were rinsed twice according to the above-mentioned operations at 500×g by the horizontal centrifuge for 10 minutes at room temperature (20-30° C.), subsequently the cells were collected and their cell vitality was detected by using dye exclusion method for living cells (Trypan blue).
# The cells were added to a 24-well plate in 3×10^5 cells/mL/well and different concentrations of 6-shogaol (10 and 20 μM) for treatment for 24 hours after they were incubated for 24 hours. Negative control group (the group without drug) and the treatment group with 6-shogaol were set up for PBMCs from different individuals respectively. After the cells were treated with 6-shogaol for 24 hours, they were transferred into 10 mL glass centrifuge tubes and centrifuged at 500 rpm (or 100×g) for 5 minutes to remove the supernatant. The cells were then rinsed with 0.01 M PBS at 500 rpm (or 100×g) for 5 minutes twice. Subsequently, after adding binding solution and staining according to the directions for use of Annexin V/PI double staining kit (BD Company), flow cytometry analysis (Becton Dickinson FACScan Flow Cytometer) was carried out. The FACS data were analyzed by professional operators of the flow cytometer by using FLOWJO software (Tree Star, Calif.) software, the apoptotic rate was counted by the sum of early apoptosis and late apoptosis, and the results were shown in Table 4 and Table 5.
# [5] = system: pulmonary carcinoma A549 cells; settings: 48 hours; read-out: IC50 for inhibiting the proliferation of A549 cells; cited from earlier work
# [6] = system: human colon carcinoma COLO 205 cells; settings: read-out: IC50 for inhibiting the growth of COLO 205 cells; cited from earlier work
# melanoma SK-MEL-2 cells = settings: cited from earlier work
# ddY line mice = settings: cited from earlier work
# [7] = 24 hours, read-out: Mean IC50 after 24 hours
# [8] = 72 hours, read-out: Mean IC50 after 72 hours
smiles,measurement,setting,value
CCCCC/C=C/C(=O)CCc1ccc(O)c(OC)c1 [6-shogaol],growth inhibition (activities of cells vs control),"[1]; 24 hours, FIG. 2",significantly decreased
same,growth inhibition (activities of cells vs control),"[1]; 72 hours, FIG. 6",significantly decreased
same,IC50,[1]; [7],6.93 ± 1.28 µM
same,IC50,[1]; [8],3.7 ± 0.25 µM
same,IC50,"[1]; Homo sapiens, HL-60, 24 h, 24 hours, read-out: Mean IC50 after 24 hours",< 10 µM
same,IC50,"[1]; Homo sapiens, HL-60, 72 h, 72 hours, read-out: Mean IC50 after 72 hours",< 5 µM
same,IC50,"[2]; Homo sapiens, K562, 24 h, 24 hours, read-out: Mean IC50 after 24 hours",< 10 µM
same,IC50,"[2]; Homo sapiens, K562, 72 h, 72 hours, read-out: Mean IC50 after 72 hours",< 5 µM
same,growth inhibition (activities of cells vs control),"[2]; 24 hours, FIG. 5",significantly decreased
same,growth inhibition (activities of cells vs control),"[2]; 72 hours, FIG. 9",significantly decreased
same,IC50,[2]; [7],8.5 ± 0.8 µM
same,IC50,[2]; [8],5 ± 0.62 µM
same,Apoptotic rate,"[3]; 1 μM, 24 hours, n = 3",11.2 ± 0.9bd %
same,Apoptotic rate,"[3]; 2.5 μM, 24 hours, n = 3",17.8 ± 1.4bd %
same,Apoptotic rate,"[3]; 5 μM, 24 hours, n = 3",25.9 ± 3.2bc %
same,Apoptotic rate,"[3]; 10 μM, 24 hours, n = 3",48.7 ± 3.1bd %
same,Apoptotic rate,"[3]; 15 μM, 2 hours, n = 3",7.7 ± 2.1%
same,Apoptotic rate,"[3]; 15 μM, 4 hours, n = 3",14.6 ± 2.5ac %
same,Apoptotic rate,"[3]; 15 μM, 6 hours, n = 3",28.5 ± 3.3bd %
same,Apoptotic rate,"[3]; 15 μM, 12 hours, n = 3",45.3 ± 2.6bd %
same,Apoptotic rate,"[3]; 15 μM, 24 hours, n = 3 (Table 2)",73.2 ± 2.8bd %
same,Apoptotic rate,"[3]; 15 μM, 24 hours, n = 3 (Table 3)",72.3 ± 2.4bd %
same,induction of apoptosis of Jurkat cells (t-test),"[3]; summary statement, concentration and time dependent",significantly induce the apoptosis
same,effect on apoptosis of PBMC of healthy volunteers (t-test),"[4]; 10 cases of healthy volunteers, 10 and 20 μM",no significant difference; also recorded: no significant effects
same,Apoptotic rate of 10 μM 6-shogaol,"[4]; PBMC of healthy volunteer N1, 10 μM",17.5 ± 0.8%
same,Apoptotic rate of 20 μM 6-shogaol,"[4]; PBMC of healthy volunteer N1, 20 μM",22.8 ± 0.6%
same,Apoptotic rate of 10 μM 6-shogaol,"[4]; PBMC of healthy volunteer N2, 10 μM",13.6 ± 0.9%
same,Apoptotic rate of 20 μM 6-shogaol,"[4]; PBMC of healthy volunteer N2, 20 μM",12.3 ± 1.4%
same,Apoptotic rate of 10 μM 6-shogaol,"[4]; PBMC of healthy volunteer N3, 10 μM",27.6 ± 2.4%
same,Apoptotic rate of 20 μM 6-shogaol,"[4]; PBMC of healthy volunteer N3, 20 μM",31.9 ± 1.7%
same,Apoptotic rate of 10 μM 6-shogaol,"[4]; PBMC of healthy volunteer N4, 10 μM",8.5 ± 0.8%
same,Apoptotic rate of 20 μM 6-shogaol,"[4]; PBMC of healthy volunteer N4, 20 μM",9.7 ± 1.2%
same,Apoptotic rate of 10 μM 6-shogaol,"[4]; PBMC of healthy volunteer N5, 10 μM",16.6 ± 4.8%
same,Apoptotic rate of 20 μM 6-shogaol,"[4]; PBMC of healthy volunteer N5, 20 μM",12.8 ± 3.6%
same,Apoptotic rate of 10 μM 6-shogaol,"[4]; PBMC of healthy volunteer N6, 10 μM",14.6 ± 0.9%
same,Apoptotic rate of 20 μM 6-shogaol,"[4]; PBMC of healthy volunteer N6, 20 μM",12.3 ± 1.4%
same,Apoptotic rate of 10 μM 6-shogaol,"[4]; PBMC of healthy volunteer N7, 10 μM",14.6 ± 1.4%
same,Apoptotic rate of 20 μM 6-shogaol,"[4]; PBMC of healthy volunteer N7, 20 μM",15.9 ± 0.7%
same,Apoptotic rate of 10 μM 6-shogaol,"[4]; PBMC of healthy volunteer N8, 10 μM",18.5 ± 1.8%
same,Apoptotic rate of 20 μM 6-shogaol,"[4]; PBMC of healthy volunteer N8, 20 μM",21.7 ± 1.6%
same,Apoptotic rate of 10 μM 6-shogaol,"[4]; PBMC of healthy volunteer N9, 10 μM",12.5 ± 2.9%
same,Apoptotic rate of 20 μM 6-shogaol,"[4]; PBMC of healthy volunteer N9, 20 μM",14.8 ± 0.9%
same,Apoptotic rate of 10 μM 6-shogaol,"[4]; PBMC of healthy volunteer N10, 10 μM",12.9 ± 1.3%
same,Apoptotic rate of 20 μM 6-shogaol,"[4]; PBMC of healthy volunteer N10, 20 μM",16.5 ± 0.7%
same,IC50,[5],~60 µM
same,IC50,[6],> 60 µM
same,anti-tumor activities,melanoma SK-MEL-2 cells,certain anti-tumor activities
same,LD50,ddY line mice; intraperitoneal injection,about 109.2 mg/kg
same,LD50,ddY line mice; intravenous injection,about 50.9 mg/kg
same,LD50,ddY line mice; oral administration,687 mg/kg
